{"source": "patent US8613914B2", "about": "“Peptidomimetic sulfamide compounds and antiviral uses thereof” (Novartis AG, priority 2009, dated 2013)", "data": [{"biological_target": "HCV NS3-4A serine protease (full-length NS3-4A protein) (Hepatitis C virus genotype 1a (isolate 1) (HCV), UniProt P26664)", "sequence (P26664 1027-1657)": "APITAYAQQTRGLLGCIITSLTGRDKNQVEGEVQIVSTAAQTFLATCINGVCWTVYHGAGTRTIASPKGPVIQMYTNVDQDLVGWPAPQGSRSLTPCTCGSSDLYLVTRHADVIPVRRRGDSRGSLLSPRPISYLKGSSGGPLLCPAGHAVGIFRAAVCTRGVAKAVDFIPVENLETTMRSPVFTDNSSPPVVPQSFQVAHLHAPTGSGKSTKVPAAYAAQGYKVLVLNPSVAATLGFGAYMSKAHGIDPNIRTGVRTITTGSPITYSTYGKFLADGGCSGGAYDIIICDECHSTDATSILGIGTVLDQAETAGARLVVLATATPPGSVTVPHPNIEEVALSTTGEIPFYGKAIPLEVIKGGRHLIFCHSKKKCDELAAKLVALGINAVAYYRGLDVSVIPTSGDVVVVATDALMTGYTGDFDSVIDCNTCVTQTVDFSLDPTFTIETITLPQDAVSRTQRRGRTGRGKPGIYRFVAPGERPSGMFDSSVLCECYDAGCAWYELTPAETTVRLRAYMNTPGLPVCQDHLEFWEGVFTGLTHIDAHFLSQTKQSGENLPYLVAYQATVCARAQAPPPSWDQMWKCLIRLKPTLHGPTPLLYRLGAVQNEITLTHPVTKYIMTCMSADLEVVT", "sequence (P26664 1658-1711 partner)": "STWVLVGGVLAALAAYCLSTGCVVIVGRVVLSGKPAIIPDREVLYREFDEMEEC", "assay": "HCV NS3-4A protease assay", "assay_type": "biochemical, HCV genotype 1a", "conditions": "strain HCV-1, fluorogenic peptide substrate, read-out: Protease assay Ex. 12 IC50", "description": "The inhibitory activity of certain compounds of Table A against HCV NS3-4A serine protease is determined in a homogenous assay using the full-length NS3-4A protein (genotype 1a, strain HCV-1) and a commercially available internally-quenched fluorogenic peptide substrate as described by Taliani, M., et al. 1996 Anal. Biochem. 240:60-67, which is incorporated by reference in its entirety.", "units": {"IC50": "nM"}, "values": [{"smiles": "C=C[C@@H]1C[C@]1(NC(=O)[C@@H]1C[C@@]2(CN1C(=O)[C@@H](NC(=O)[C@@H](NC(=O)c1cc3ccccc3[nH]1)C1CCCCC1)C(C)(C)C)C(C)(C)C21CCC1)C(=O)NS(=O)(=O)N1CCCC1", "note": "[Compound 188, (5R,8S)-7-[(2S)-2-({cyclohexyl[(1H-indol-2-ylcarbonyl)amino]acetyl}amino)-3,3-dimethylbutanoyl]-10,10-dimethyl-N-{(1R,2S)-1-[(pyrrolidin-1-ylsulfonyl)carbamoyl]-2-vinylcyclopropyl}-7-azadispiro[3.0.4.1]decane-8-carboxamide]", "IC50": 20}, {"smiles": "C=C[C@@H]1C[C@]1(NC(=O)[C@@H]1C[C@@]2(CN1C(=O)[C@@H](NC(=O)[C@@H](NC(=O)c1c[nH]c3ccccc13)C1CCCCC1)C(C)(C)C)C(C)(C)C21CCC1)C(=O)NS(=O)(=O)N1CCCC1", "note": "[Compound 189, (5R,8S)-7-[(2S)-2-({cyclohexyl[(1H-indol-3-ylcarbonyl)amino]acetyl}amino)-3,3-dimethylbutanoyl]-10,10-dimethyl-N-{(1R,2S)-1-[(pyrrolidin-1-ylsulfonyl)carbamoyl]-2-vinylcyclopropyl}-7-azadispiro[3.0.4.1]decane-8-carboxamide]", "IC50": 25}, {"smiles": "C=C[C@@H]1C[C@]1(NC(=O)[C@@H]1C[C@@]2(CN1C(=O)[C@@H](NC(=O)[C@@H](NC(=O)c1ccc3[nH]ccc3c1)C1CCCCC1)C(C)(C)C)C(C)(C)C21CCC1)C(=O)NS(=O)(=O)N1CCCC1", "note": "[Compound 190, (5R,8S)-7-[(2S)-2-({cyclohexyl[(1H-indol-5-ylcarbonyl)amino]acetyl}amino)-3,3-dimethylbutanoyl]-10,10-dimethyl-N-{(1R,2S)-1-[(pyrrolidin-1-ylsulfonyl)carbamoyl]-2-vinylcyclopropyl}-7-azadispiro[3.0.4.1]decane-8-carboxamide]", "IC50": 20}, {"smiles": "C=C[C@@H]1C[C@]1(NC(=O)[C@@H]1C[C@@]2(CN1C(=O)[C@@H](NC(=O)[C@@H](NC(=O)c1cc3ccccc3o1)C1CCCCC1)C(C)(C)C)C(C)(C)C21CCC1)C(=O)NS(=O)(=O)N1CCCC1", "note": "[Compound 191, (5R,8S)-7-[(2S)-2-({[(1-benzofuran-2-ylcarbonyl)amino](cyclohexyl)acetyl}amino)-3,3-dimethylbutanoyl]-10,10-dimethyl-N-{(1R,2S)-1-[(pyrrolidin-1-ylsulfonyl)carbamoyl]-2-vinylcyclopropyl}-7-azadispiro[3.0.4.1]decane-8-carboxamide]", "IC50": 55}, {"smiles": "C=C[C@@H]1C[C@]1(NC(=O)[C@@H]1C[C@@]2(CN1C(=O)[C@@H](NC(=O)[C@@H](NC(=O)c1ccc3occc3c1)C1CCCCC1)C(C)(C)C)C(C)(C)C21CCC1)C(=O)NS(=O)(=O)N1CCCC1", "note": "[Compound 192, (5R,8S)-7-[(2S)-2-({[(1-benzofuran-5-ylcarbonyl)amino](cyclohexyl)acetyl}amino)-3,3-dimethylbutanoyl]-10,10-dimethyl-N-{(1R,2S)-1-[(pyrrolidin-1-ylsulfonyl)carbamoyl]-2-vinylcyclopropyl}-7-azadispiro[3.0.4.1]decane-8-carboxamide]", "IC50": 25}, {"smiles": "C=C[C@@H]1C[C@]1(NC(=O)[C@@H]1C[C@@]2(CN1C(=O)[C@@H](NC(=O)[C@@H](NC(=O)[C@@H](OC)c1ccccc1)C1CCCCC1)C(C)(C)C)C(C)(C)C21CCC1)C(=O)NS(=O)(=O)N1CCCC1", "note": "[Compound 193, (5R,8S)-7-{(2S)-2-[(cyclohexyl{[(2S)-2-methoxy-2-phenylacetyl]amino}acetyl)amino]-3,3-dimethylbutanoyl}-10,10-dimethyl-N-{(1R,2S)-1-[(pyrrolidin-1-ylsulfonyl)carbamoyl]-2-vinylcyclopropyl}-7-azadispiro[3.0.4.1]decane-8-carboxamide]", "IC50": 25}, {"smiles": "C=C[C@@H]1C[C@]1(NC(=O)[C@@H]1C[C@@]2(CN1C(=O)[C@@H](NC(=O)[C@@H](NC(=O)C1CCN(C(C)=O)CC1)C1CCCCC1)C(C)(C)C)C(C)(C)C21CCC1)C(=O)NS(=O)(=O)N1CCCC1", "note": "[Compound 194, (5R,8S)-7-[(2S)-2-{[{[(1-acetylpiperidin-4-yl)carbonyl]amino}(cyclohexyl)acetyl]amino}-3,3-dimethylbutanoyl]-10,10-dimethyl-N-{(1R,2S)-1-[(pyrrolidin-1-ylsulfonyl)carbamoyl]-2-vinylcyclopropyl}-7-azadispiro[3.0.4.1]decane-8-carboxamide]", "IC50": 10}, {"smiles": "C=C[C@@H]1C[C@]1(NC(=O)[C@@H]1C[C@@]2(CN1C(=O)[C@@H](NC(=O)[C@@H](NC(=O)c1nccc3ccccc13)C1CCCCC1)C(C)(C)C)C(C)(C)C21CCC1)C(=O)NS(=O)(=O)N1CCCC1", "note": "[Compound 195, (5R,8S)-7-[(2S)-2-({cyclohexyl[(isoquinolin-1-ylcarbonyl)amino]acetyl}amino)-3,3-dimethylbutanoyl]-10,10-dimethyl-N-{(1R,2S)-1-[(pyrrolidin-1-ylsulfonyl)carbamoyl]-2-vinylcyclopropyl}-7-azadispiro[3.0.4.1]decane-8-carboxamide]", "IC50": 75}, {"smiles": "C=C[C@@H]1C[C@]1(NC(=O)[C@@H]1C[C@@]2(CN1C(=O)[C@@H](NC(=O)[C@@H](NC(=O)c1cnc3ccccc3c1)C1CCCCC1)C(C)(C)C)C(C)(C)C21CCC1)C(=O)NS(=O)(=O)N1CCCC1", "note": "[Compound 196, (5R,8S)-7-[(2S)-2-({cyclohexyl[(quinolin-3-ylcarbonyl)amino]acetyl}amino)-3,3-dimethylbutanoyl]-10,10-dimethyl-N-{(1R,2S)-1-[(pyrrolidin-1-ylsulfonyl)carbamoyl]-2-vinylcyclopropyl}-7-azadispiro[3.0.4.1]decane-8-carboxamide]", "IC50": 20}, {"smiles": "C=C[C@@H]1C[C@]1(NC(=O)[C@@H]1C[C@@]2(CN1C(=O)[C@@H](NC(=O)[C@@H](NC(=O)c1ccnc3ccccc13)C1CCCCC1)C(C)(C)C)C(C)(C)C21CCC1)C(=O)NS(=O)(=O)N1CCCC1", "note": "[Compound 197, (5R,8S)-7-[(2S)-2-({cyclohexyl[(quinolin-4-ylcarbonyl)amino]acetyl}amino)-3,3-dimethylbutanoyl]-10,10-dimethyl-N-{(1R,2S)-1-[(pyrrolidin-1-ylsulfonyl)carbamoyl]-2-vinylcyclopropyl}-7-azadispiro[3.0.4.1]decane-8-carboxamide]", "IC50": 40}, {"smiles": "C=C[C@@H]1C[C@]1(NC(=O)[C@@H]1C[C@@]2(CN1C(=O)[C@@H](NC(=O)[C@@H](NC(=O)c1ccc3c(ccn3C)c1)C1CCCCC1)C(C)(C)C)C(C)(C)C21CCC1)C(=O)NS(=O)(=O)N1CCCC1", "note": "[Compound 198, (5R,8S)-7-{(2S)-2-[(cyclohexyl{[(1-methyl-1H-indol-5-yl)carbonyl]amino}acetyl)amino]-3,3-dimethylbutanoyl}-10,10-dimethyl-N-{(1R,2S)-1-[(pyrrolidin-1-ylsulfonyl)carbamoyl]-2-vinylcyclopropyl}-7-azadispiro[3.0.4.1]decane-8-carboxamide]", "IC50": 40}, {"smiles": "C=C[C@@H]1C[C@]1(NC(=O)[C@@H]1C[C@@]2(CN1C(=O)[C@@H](NC(=O)[C@@H](NC(=O)c1cnc(C)cn1)C1CCCCC1)C(C)(C)C)C(C)(C)C21CCC1)C(=O)NS(=O)(=O)N1CCCC1", "note": "[Compound 199, (5R,8S)-7-{(2S)-2-[(cyclohexyl{[(5-methylpyrazin-2-yl)carbonyl]amino}acetyl)amino]-3,3-dimethylbutanoyl}-10,10-dimethyl-N-{(1R,2S)-1-[(pyrrolidin-1-ylsulfonyl)carbamoyl]-2-vinylcyclopropyl}-7-azadispiro[3.0.4.1]decane-8-carboxamide]", "IC50": 14}, {"smiles": "C=C[C@@H]1C[C@]1(NC(=O)[C@@H]1C[C@@]2(CN1C(=O)[C@@H](NC(=O)[C@@H](NC(=O)CN(C)C)C1CCCCC1)C(C)(C)C)C(C)(C)C21CCC1)C(=O)NS(=O)(=O)N1CCCC1", "note": "[Compound 200, (5R,8S)-7-{(2S)-2-[(cyclohexyl{[(dimethylamino)acetyl]amino}acetyl)amino]-3,3-dimethylbutanoyl}-10,10-dimethyl-N-{(1R,2S)-1-[(pyrrolidin-1-ylsulfonyl)carbamoyl]-2-vinylcyclopropyl}-7-azadispiro[3.0.4.1]decane-8-carboxamide]", "IC50": 8}, {"smiles": "C=C[C@@H]1C[C@]1(NC(=O)[C@@H]1C[C@@]2(CN1C(=O)[C@@H](NC(=O)[C@@H](NC(=O)c1cnon1)C1CCCCC1)C(C)(C)C)C(C)(C)C21CCC1)C(=O)NS(=O)(=O)N1CCCC1", "note": "[Compound 201, (5R,8S)-7-[(2S)-2-({cyclohexyl[(1,2,5-oxadiazol-3-ylcarbonyl)amino]acetyl}amino)-3,3-dimethylbutanoyl]-10,10-dimethyl-N-{(1R,2S)-1-[(pyrrolidin-1-ylsulfonyl)carbamoyl]-2-vinylcyclopropyl}-7-azadispiro[3.0.4.1]decane-8-carboxamide]", "IC50": 35}, {"smiles": "C=C[C@@H]1C[C@]1(NC(=O)[C@@H]1C[C@@]2(CN1C(=O)[C@@H](NC(=O)[C@@H](NC(=O)CN1CCN(C)CC1)C1CCCCC1)C(C)(C)C)C(C)(C)C21CCC1)C(=O)NS(=O)(=O)N1CCCC1", "note": "[Compound 202, (5R,8S)-7-{(2S)-2-[(cyclohexyl{[(4-methylpiperazin-1-yl)acetyl]amino}acetyl)amino]-3,3-dimethylbutanoyl}-10,10-dimethyl-N-{(1R,2S)-1-[(pyrrolidin-1-ylsulfonyl)carbamoyl]-2-vinylcyclopropyl}-7-azadispiro[3.0.4.1]decane-8-carboxamide]", "IC50": 20}, {"smiles": "CC[C@@H]1C[C@]1(NC(=O)[C@@H]1C[C@@]2(CN1C(=O)[C@@H](NC(=O)[C@@H](NC(=O)[C@@H]1CCCCN1C(C)C)C1CCCCC1)C(C)(C)C)C(C)(C)C21CCC1)C(=O)NS(=O)(=O)N(CC)CC", "note": "[Compound 203, (5R,8S)-7-[(2S)-2-{[(2S)-2-cyclohexyl-2-({[(2S)-1-isopropylpiperidin-2-yl]carbonyl}amino)acetyl]amino}-3,3-dimethylbutanoyl]-N-(1-{[(diethylamino)sulfonyl]carbamoyl}-2-ethylcyclopropyl)-10,10-dimethyl-7-azadispiro[3.0.4.1]decane-8-carboxamide]", "IC50": 8}]}]}
